Common to all, as to assay type: cell-based, human
The subject of assay [1] is Circulating Tumour Cells (CTCs) from a patient with lung cancer (adenocarcinoma). Nature of the assay: Drug response score assay on CTCs (with CD45+ cells for immunotherapy) from blood, Example 5. As to conditions: lung cancer CTCs; for Drug sensitivity as calculated by the assay (interpretation of Drug Response Scores): Table 17. The protocol:
(§1) CD45^+ cells and circulating tumour cells (CTCs) were isolated from a blood sample provided by each subject.
(§2) CD45 separation was performed by adding human CD45 microbeads (50 μl/ml blood), incubating for 15 minutes at 4° C. and then processing using an AutoMACS machine. This separates the blood sample into CD45^+ and CD45^−cells in 2 separate falcons. The falcon tubes are then centrifuged at 1200 rpm for 5 minutes.
(§3) The supernatant was removed from the CD45^+falcon tube, and the cells resuspended in DMEM with 2 μl Cell Tox, 2 μl MT and 2 μl MT. 20 μl of the resuspended CD45^+ cells was then plated in each well which will contain an immunotherapy treatment.
(§4) The supernatant was removed from the CD45^−falcon tube, and the CD45^−cells contacted with 100 μl of FcR block and 100 μl of CD326 (EpCAM) MicroBeads, followed by incubation at […] 4° C. for 30 minutes. The CD45^−cells were then processed using an AutoMACS machine to separate the EpCAM positive and negative cells into 2 separate falcon tubes. The EpCAM-cells were discarded. The supernatant was removed from the EpCAM^+ cells, and the cells resuspended in DMEM with 2 μl Cell Tox, 2 μl MT and 2 μl MT. 20 μl of the resuspended pellet was then added to all sample wells excluding a blank. After all wells are added to, a cell count was conducted on the […] to determine the number of circulating tumour cells (CTCs).
(§5) The different cell types were each divided equally into populations, depending on the number of drugs/concentrations to be tested and plated on a cell-culture plate pre-coated with a scaffold of polycaprolactone (PCL) electrospun fibres and incubated at 37° C., 5% CO2, for 5 to (typically 10) minutes to facilitate cell attachment. After attachment, an initial imaging step was carried out using the RealTime-Glo™ MT assay from Promega (Catalogue No. G9711)) and the CellTox™ Green Cytotoxicity Assay (Promega, Catalogue No. G8741), carried out according to manufacturer's instructions. Following this initial imagining, the immunotherapeutic and/or chemotherapeutic agents were added to the cell populations as indicated below. After 10 minutes, the imagining step was repeated. The cell populations were then incubated at 37° C., 5% CO2 for 48 hours. The imaging step was then repeated. The cell populations were then re-dosed with the same immunotherapeutic and/or chemotherapeutic agents as indicated below, and incubated at 37° C., 5% CO2 for a further 48 hours. After this second 48 hour incubation, the imagining step was repeated for a final time.
(§6) At the end of this culture period, dose response scores were calculated using a normalized drug response metric as described in Gupta et al. (Communications Biology volume 3, Article number: 42 (2020), https://doi.org/10.1038/s42003-020-0765-z). The start readout for a given immunotherapeutic or chemotherapeutic agent at a given concentration was the to readout for said immunotherapeutic or chemotherapeutic agent at a specified concentration. The end readout for a given immunotherapeutic or chemotherapeutic agent at a given concentration was the final timepoint reading (t96h) for said immunotherapeutic or chemotherapeutic agent at a specified concentration.
(§7) The positive control start readout for a given drug/concentration was the to readout for the corresponding drug at a specified concentration. The positive control end readout for the corresponding drug at a specified concentration was the final timepoint reading (t96h) for the corresponding blank well.
(§8) The negative control start and end readouts for a given immunotherapeutic or chemotherapeutic agent at a given concentration were the to and final timepoint reading (t96h) respectively for blank cell or blank immuno cell well respectively.
(§9) The sensitivity or resistance of a subject's cancer to a given immunotherapeutic or chemotherapeutic agent was determined based on the calculated drug response score as shown in Table 2. […]

Assay [2] has as its system Circulating Tumour Cells (CTCs) from a patient with head and neck cancer (squamous cell carcinoma). As to the kind of experiment: Drug response score assay on CTCs from blood, Example 6. As to conditions: for Drug response score, conc. 1: conc. 1: Ifos 0.125 μg/ml, Gemcit 2 μg/ml, Doxo 10 ng/ml, Etop 1 μg/ml, Metho 0.5 μg/ml, Capecit 200 μg/ml, Vinor 20 μg/ml; for Drug response score, conc. 1 / Drug response score, conc. 2 / Drug response score, conc. 3 / Drug response score, conc. 4: CTCs, t96h; for Drug response score, conc. 2: conc. 2: Ifos 0.25 μg/ml, Gemcit 10 μg/ml, Doxo 30 ng/ml, Etop 4 μg/ml, Metho 1 μg/ml, Capecit 300 μg/ml, Vinor 40 μg/ml; for Drug response score, conc. 3: conc. 3: Ifos 5 μg/ml, Gemcit 20 μg/ml, Doxo 90 ng/ml, Etop 20 μg/ml, Metho 2 μg/ml, Capecit 400 μg/ml, Vinor 80 μg/ml; for Drug response score, conc. 4: conc. 4: Ifos 10 μg/ml, Gemcit 40 μg/ml, Doxo 270 ng/ml, Etop 100 μg/ml, Metho 4 μg/ml, Capecit 600 μg/ml, Vinor 200 μg/ml; for effectiveness on Circulating Tumour Cells under laboratory conditions / Drug sensitivity as calculated by the assay (interpretation of Drug Response Scores): head and neck cancer CTCs; for Drug sensitivity as calculated by the assay (interpretation of Drug Response Scores): Table 20. The protocol:
as §1, §2, §4, §5, §6, §7, §8
(§10) The sensitivity or resistance of a subject's cancer to a given immunotherapeutic or chemotherapeutic agent was determined based on the calculated drug response score as shown in Table 2.
Blood samples from a patient with head and neck cancer (squamous cell carcinoma) were received on 11 Mar. 2022 and tested using a 7 drug panel.

For assay [3], the system named is Circulating Tumour Cells (CTCs) from a patient with colon cancer (sigmoid colon cancer). As to the kind of experiment: Drug response score assay on CTCs from blood, Example 8. More on the design: key to Drug response score, conc. 1 / Drug response score, conc. 2 / Drug response score, conc. 3 / Drug response score, conc. 4: normalized drug response metric (Gupta et al. 2020). A digest of the protocol:
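EpCAM+ CTCs isolated from patient blood by CD45 depletion then EpCAM bead selection, and imaged with RealTime-Glo MT viability and CellTox Green cytotoxicity reagents. Agents added, cells cultured at 37° C, 5% CO2 for 48 h, re-dosed, then a further 48 h. Score calculated by normalized drug response metric from t0 and t96h readouts against blank-well controls.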

In assay [4] the test system is Circulating Tumour Cells (CTCs) from a patient with colon cancer. Nature of the assay: Drug response score assay on CTCs from blood, Example 2. The protocol: as §1, §2, §4, §5, §6, §7, §8, §10
Blood samples from a patient with colon cancer were received on 3 Mar. 2022 and tested using a 1 drug panel.

Assay [5] concerns Circulating Tumour Cells (CTCs, EpCam+CD45−) from a patient with stage II synovial sarcoma. Nature of the assay: Drug response score assay (RealTime-Glo MT / CellTox Green, PCL scaffold) on CTCs from blood, Example 1. Set-up: key to Drug response score, conc. 1 / Drug response score, conc. 2 / Drug response score, conc. 3 / Drug response score, conc. 4: normalized drug response metric per Gupta et al. 2020. How it is done: as §1, §2, §4, §5, §6, §7, §8, §10
Blood samples from a patient with stage II synovial sarcoma (suspected spindle cell tumour) were received and tested using a 6 drug panel.
Chemotherapeutic agents were tested as in Table 3.

The subject of assay [6] is Circulating Tumour Cells (CTCs) from a patient with renal cancer. As to the kind of experiment: Drug response score assay on CTCs (with CD45+ cells for immunotherapy) from blood, Example 7. Set-up: key to Drug response score, conc. 1 / Drug response score, conc. 2 / Drug response score, conc. 3 / Drug response score, conc. 4: normalized drug response metric per Gupta et al. 2020. The protocol: as §1, §2, §3, §4, §5, §6, §7, §8, §9

As to `CCC1=C[C@@H]2CN(C1)Cc1c([nH]c3ccccc13)[C@@](C(=O)OC)(c1cc3c(cc1OC)N(C)[C@H]1[C@@](O)(C(=O)OC)[C@H](OC(C)=O)[C@]4(CC)C=CCN5CC[C@]31[C@@H]54)C2` [Vinorelbine], the “Drug sensitivity as calculated by the assay (interpretation of Drug Response Scores)” value (shortened to “Drug sensitivity as calculated”) in assay [1] was “S++”; in assay [2], “Sensitive (S+)”; in assay [3] (sigmoid colon cancer CTCs, Table 26), “Sensitive (S+)”. The “Drug response score, conc. 1” value in assay [2] is recorded as 0.6102; in assay [3] (conc. 1 of each drug as in Table 24, CTCs, t96h), 0.0721. In addition, the “Drug response score, conc. 2” value in assay [2] is on record as 0.9691; in assay [3] (conc. 2 of each drug as in Table 24, CTCs, t96h) it was −0.6648. Further, the “Drug response score, conc. 3” value in assay [2] came to 0.4733; in assay [3] (conc. 3 of each drug as in Table 24, CTCs, t96h) it was 0.2340. For the same compound, the “Drug response score, conc. 4” value in assay [2] was 0.8073; in assay [3] (conc. 4 of each drug as in Table 24, CTCs, t96h), −0.5738. Further, the “effectiveness on Circulating Tumour Cells under laboratory conditions” value in assay [2] is reported as “Sensitive S+”.
Take `N.N.[Cl][Pt][Cl]` [Cisplatin]: the “Drug response score, conc. 1” value in assay [4] (Cisplatin 2 μg/ml, CTCs, t96h) is 2.719. Further, in assay [4] (Cisplatin 4 μg/ml, CTCs, t96h), the “Drug response score, conc. 2” value came out at 2.874. In assay [4] (Cisplatin 10 μg/ml, CTCs, t96h), the “Drug response score, conc. 3” value stood at 3.012. Further, the “Drug response score, conc. 4” value in assay [4] (Cisplatin 20 μg/ml, CTCs, t96h) came out at 3.259. Besides, in assay [4] (colon cancer CTCs), the “effectiveness on Circulating Tumour Cells under laboratory conditions” value was “not effective”. Moreover, in assay [4] (colon cancer CTCs, Table 8), the “Drug sensitivity as calculated” value is listed as “Resistant”.
On to `Nc1ccn([C@@H]2O[C@H](CO)[C@@H](O)C2(F)F)c(=O)n1` [Gemcitabine], for which the “Drug response score, conc. 1” value in assay [5] (conc. 1: Doxo 10 ng/ml, Ifos 0.125 μg/ml, Gemcit 2 μg/ml, Doce 0.02 μg/ml, Carbo 2 μg/ml, Dacarb 1.5 μg/ml, CTCs, t96h, re-dosed at 48 h) was 0.9382; in assay [2] it was 0.9091; in assay [6] (conc. 1: Pembr 20 μg/ml (CTCs + CD45+ cells), Docetax 0.02 μg/ml, Gemcit 2 μg/ml, Topo 5 μg/ml, Etop 1 μg/ml, Eribul 5 μg/ml (CTCs), t96h), −0.1637. For the same compound, the “Drug response score, conc. 2” value in assay [5] (conc. 2: Doxo 30 ng/ml, Ifos 0.25 μg/ml, Gemcit 10 μg/ml, Doce 0.2 μg/ml, Carbo 5 μg/ml, Dacarb 3 μg/ml, CTCs, t96h) is recorded as 0.4695; in assay [2] it was 0.8443; in assay [6] (conc. 2: Pembr 40 μg/ml (CTCs + CD45+ cells), Docetax 0.2 μg/ml, Gemcit 10 μg/ml, Topo 10 μg/ml, Etop 4 μg/ml, Eribul 10 μg/ml (CTCs), t96h), 0.0725. The “Drug response score, conc. 3” value is 0.5149 in assay [5] (conc. 3: Doxo 90 ng/ml, Ifos 5 μg/ml, Gemcit 20 μg/ml, Doce 2 μg/ml, Carbo 10 μg/ml, Dacarb 6 μg/ml, CTCs, t96h); 0.6925 in assay [2]; −0.3154 in assay [6] (conc. 3: Pembr 100 μg/ml (CTCs + CD45+ cells), Docetax 2 μg/ml, Gemcit 20 μg/ml, Topo 50 μg/ml, Etop 20 μg/ml, Eribul 20 μg/ml (CTCs), t96h). In addition, the “Drug response score, conc. 4” value in assay [5] (conc. 4: Doxo 270 ng/ml, Ifos 10 μg/ml, Gemcit 40 μg/ml, Doce 10 μg/ml, Carbo 20 μg/ml, Dacarb 12 μg/ml, CTCs, t96h) is 0.4075; in assay [2], 0.3157; in assay [6] (conc. 4: Pembr 160 μg/ml (CTCs + CD45+ cells), Docetax 10 μg/ml, Gemcit 40 μg/ml, Topo 100 μg/ml, Etop 100 μg/ml, Eribul 40 μg/ml (CTCs), t96h), −0.0871. Moreover, the “Drug sensitivity as calculated” value was “Sensitive (S+)” in assay [5] (synovial sarcoma CTCs, Table 5); “S++” in assay [1]; “Sensitive (S+)” in assay [2]; “Sensitive (S++)” in assay [6] (renal cancer CTCs, Table 23). The “effectiveness on Circulating Tumour Cells (CTCs) under laboratory conditions” value in assay [1] is “marginally more effective than other agents”. Further, the “effectiveness on Circulating Tumour Cells under laboratory conditions” value in assay [2] was “Sensitive S+”; in assay [6] (renal cancer CTCs) it was “Sensitive S++”.

Source of the values: patent US20250290915A1, “METHOD FOR PREDICTING RESPONSIVENESS TO THERAPY” (CANCERTAIN LIMITED, priority 2022, published 2025).
